Biological target: T1, tau (fibrils) (Homo sapiens, UniProt P10636)
T1 construct: gene MAPT; tau amyloid fibrils
Assay: fluorescence turn-on with […] fibrils ([…] lower than αS), emission maximum […] nm
Type: binding

T1 sequence (P10636 1-441 isoform P10636-8): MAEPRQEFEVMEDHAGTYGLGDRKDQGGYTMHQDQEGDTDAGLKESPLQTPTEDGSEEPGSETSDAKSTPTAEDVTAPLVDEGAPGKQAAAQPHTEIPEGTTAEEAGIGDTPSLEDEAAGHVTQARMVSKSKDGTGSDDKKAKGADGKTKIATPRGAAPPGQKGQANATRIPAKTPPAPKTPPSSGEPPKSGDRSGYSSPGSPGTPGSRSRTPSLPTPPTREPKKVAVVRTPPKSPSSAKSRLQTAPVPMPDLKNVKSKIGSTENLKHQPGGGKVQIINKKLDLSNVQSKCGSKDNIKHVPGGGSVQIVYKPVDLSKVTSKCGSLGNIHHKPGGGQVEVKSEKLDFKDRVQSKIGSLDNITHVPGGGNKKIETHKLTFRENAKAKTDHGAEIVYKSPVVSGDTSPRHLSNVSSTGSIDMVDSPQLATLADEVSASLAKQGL

Compound: Cc1c(C)n2c(/C=C/c3ccc(N(C)C)cc3)c(C)c(=O)n2c1=O [5k]
- fluorescence turn-on with 10 μM fibrils (2.8-fold lower than αS), emission maxim: although 5k binds to both αS and tau, it has a greater fluorescence activation
